Usually Kd stands for the free concentration of one partner at which half of the binding sites on the other are occupied at equilibrium, for simple one-to-one binding.

The target of the test is T1, LXRβ (Homo sapiens, UniProt P55055).
T1 sequence (P55055 222-460 limits assumed): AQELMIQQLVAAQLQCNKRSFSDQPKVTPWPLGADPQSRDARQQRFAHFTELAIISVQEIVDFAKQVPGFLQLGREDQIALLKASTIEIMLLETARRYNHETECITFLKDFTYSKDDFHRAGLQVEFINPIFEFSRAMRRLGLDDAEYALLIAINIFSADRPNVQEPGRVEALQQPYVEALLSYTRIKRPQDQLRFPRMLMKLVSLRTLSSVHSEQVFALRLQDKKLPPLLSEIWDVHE
Put plainly: SPR. Format: binding.

In turn, `O=C(O)c1cc(O)c2c(c1)C(=O)c1cccc(O)c1C2=O` [RH, 4,5-dihydroxyanthraquinone-2-carboxylic acid] registered a Kd of 32 µM.

Values taken from paper PMC3492795 (International Journal of Biological Sciences, 2012).
